Measurements as given in patent US12453715B2, “Use of artemether in the prevention and treatment of Alzheimer's disease” (UNIVERSITY OF MACAU, priority 2018, dated 2025).

How the values were obtained:
PC12 cells [1] = assay: AMPK inhibitor compound C against the protective effect of artemether in PC12 cells (MTT, flow cytometry, Western blot); assay type: cell-based
Description: Apoptosis was evaluated by flow cytometry. PC12 cells were seeded into 6-well plates, treated, digested with 0.25% trypsin, harvested, washed twice with ice cold 1×PBS and suspended with buffer. […] were stained with 5 μL Annexin-V-FITC and 10 μL propidium iodide solution, incubated for 30 min in the dark, and the apoptotic cells in each group were determined and analyzed using a flow cytometer. The other steps are the same as in Embodiment 2.4 and Embodiment 10.

PC12 cells [2] = assay: MTT assay, Aβ1-42-induced cytotoxicity in PC12 cells; assay type: cell-based; details: 1 μM Aβ1-42 for 24 hours
Description: PC12 cells were cultured in DMEM (Dulbecco's Modified Eagle's) medium supplemented with 10% fetal bovine serum (FBS) and 100 μg/ml streptomycin in a humidified incubator 5% CO2 at 37° C. The cells were seeded in 96-well plates, and then treated with Aβ1-42a and artemether. MTT assay was used to access cell viability. MTT (3-(4,5-dimethylthiazole-2)-2,5-diphenyltetrazolium bromide) the detection principle relies on the enzymatic reduction of MTT to water-insoluble purple crystals-formazan particles, which is catalyzed by mitochondrial succinate dehydrogenase produced in living cells. The light absorption value is measured by an enzyme-linked immunoassay at 570 nm wavelength allowing to determine the number of living cells based on the amount of formazan produced. In short, PC12 cells were seeded in 96-well plates. In the next day the medium was replaced with fresh DMEM, and the cells pretreated with different concentrations of artemether or untreated followed by incubation with 1 μM Aβ1-42 for 24 hours. After 24 hours, MTT (0.5 mg/mL) was added to each well and further incubated for another 3 hours at 37° C. After incubation, the cells and MTT formazan crystals were dissolved with DMSO, and the absorbance was measured at 570 nm. Cell viability was calculated as a percentage of the control group.

In the case of `c1cc(-c2cnn3cc(-c4ccc(OCCN5CCCCC5)cc4)cnc23)ccn1` [compound C], the “effect on phosphorylation of AMPK and GSK3β (ser9) induced by artemether” value (PC12 cells [1]; Western blot, GAPDH as internal control) is reported as “reversed the phosphorylation of AMPK and GSK3β (ser9) induced by artemether”, the “effect on the protection by artemether from Aβ1-42-induced apoptosis (flow cytometry)” value (PC12 cells [1]; compound C pretreatment with artemether, Aβ1-42 (1 μM)) is reported as “alleviated the protective effect of artemether on Aβ1-42-induced apoptosis” and the “effect on the cell survival effect of artemether (cell viability, MTT)” value (PC12 cells [1]; compound C pretreatment with artemether, Aβ1-42 (1 μM) for 24 hours) is reported as “abolished the elevated cell survival effect of artemether”.

For `CO[C@H]1O[C@@H]2O[C@@]3(C)CC[C@H]4[C@H](C)CC[C@@H]([C@H]1C)[C@@]24OO3` [artemether], the “effective dose for protection from Aβ1-42-induced cytotoxicity” value (PC12 cells [2]) was “about 10 μM” and the “protection from Aβ1-42-induced cytotoxicity (cell viability, MTT)” value (PC12 cells [2]; artemether pretreatment) was “protected PC12 cells from Aβ1-42-induced cytotoxicity in a concentration-dependent manner”.
